# Target: C-Raf FL (Homo sapiens (Human), UniProt P04049, Y340E/Y341E)
# Assay: In vitro Raf activity determination (Alpha Screen, phospho-MEK), C-Raf FL (full length, Y340E/Y341E)
# Assay type: biochemical
# Settings: ATP 1 μM; 60 min pre-incubation; 1 hour reaction; column head does not say FL or TR
# Text: The activity of a compound according to the present invention can be assessed by well-known in vitro & in vivo methods. Raf inhibition data provided herein was obtained using the following procedures.
# Sf9 cells co-expressing both proteins were lysed and subjected to immobilized nickel chromatography and eluted with Imidazole. A second column (StrepII binding column) was used and eluted with desthiobiotin. Protein Tags were removed using Prescission enzyme and the protein was further purified using a flowthrough step to remove tags.
# C-Raf TR refers to a truncated C-Raf protein, a Δ1-324 deletion mutant. C-Raf FL refers to the full-length C-Raf protein.
# Full length MEK1 with an inactivating K97R ATP binding site mutation is utilized as a RAF substrate. The MEK1 cDNA was subcloned with an N-terminal (his)6 tag into a vector for E. Coli expression. The MEK1 substrate was purified from E. Coli lysate by nickel affinity chromatography followed by anion exchange. The final MEK1 preparation was biotinylated (Pierce EZ-Link Sulfo-NHS-LC-Biotin) and concentrated.
# Assay protocol: Raf and biotinylated Mek (kinase dead) were combined at 2× final concentrations in assay buffer (50 mM Tris, pH 7.5, 15 mM MgCl2, 0.01% BSA and 1 mM DTT) and dispensed […] per well in assay plates (Greiner white 384 well assay plates #781207) containing […] of 40× of a Raf kinase inhibitor test compound diluted in 100% DMSO. The plate was incubated for 60 minutes at room temperature. […] The reactions were stopped and the phosphorylated product was measured using a rabbit anti-p-MEK (Cell Signaling, #9121) antibody and the Alpha Screen IgG (ProteinA) detection Kit (PerkinElmer #6760617R), by the addition of […] to the well of a mixture of the antibody (1:2000 dilution) and detection beads (1:2000 dilution of both beads) in Stop/bead buffer (25 mM EDTA, 50 mM Tris, pH 7.5, 0.01% Tween20). The additions were carried out under dark conditions to protect the detection beads from light. A lid was placed on top of the plate and incubated for 1 hour at room temperature, after which the luminescence was read on a PerkinElmer Envision instrument. The concentration of each compound for 50% inhibition (IC50) was calculated by non-linear regression using XL Fit data analysis software.
# Sequence of C-Raf FL (P04049 whole entry Y340E/Y341E): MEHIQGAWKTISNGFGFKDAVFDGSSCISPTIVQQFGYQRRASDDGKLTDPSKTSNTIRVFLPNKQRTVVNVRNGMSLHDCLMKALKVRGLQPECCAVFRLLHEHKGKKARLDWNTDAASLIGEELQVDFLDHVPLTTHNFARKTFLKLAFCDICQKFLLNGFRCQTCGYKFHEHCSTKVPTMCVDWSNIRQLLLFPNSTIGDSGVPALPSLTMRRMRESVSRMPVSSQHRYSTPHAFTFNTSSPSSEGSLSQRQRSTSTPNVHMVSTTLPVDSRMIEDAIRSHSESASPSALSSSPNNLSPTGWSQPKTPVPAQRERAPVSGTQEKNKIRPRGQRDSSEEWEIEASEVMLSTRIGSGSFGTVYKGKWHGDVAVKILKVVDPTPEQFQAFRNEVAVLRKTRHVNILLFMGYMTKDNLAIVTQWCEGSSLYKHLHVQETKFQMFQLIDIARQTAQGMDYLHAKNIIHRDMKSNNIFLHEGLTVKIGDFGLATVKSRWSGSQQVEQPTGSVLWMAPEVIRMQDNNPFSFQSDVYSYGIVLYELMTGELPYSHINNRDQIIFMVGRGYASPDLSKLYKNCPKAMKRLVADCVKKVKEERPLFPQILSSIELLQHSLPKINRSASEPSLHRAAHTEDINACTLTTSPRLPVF
# Sequence of C-Raf FL (P63104 whole entry partner): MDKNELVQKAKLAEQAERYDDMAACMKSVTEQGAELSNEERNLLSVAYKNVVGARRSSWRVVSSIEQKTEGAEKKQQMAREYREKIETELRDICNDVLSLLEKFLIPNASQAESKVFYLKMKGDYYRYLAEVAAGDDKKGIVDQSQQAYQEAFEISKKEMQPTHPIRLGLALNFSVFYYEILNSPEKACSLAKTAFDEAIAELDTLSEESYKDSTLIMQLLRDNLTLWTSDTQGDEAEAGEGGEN
row,SMILES,IC50
1,"Cc1ncc(NC(=O)c2ccnc(C(C)(C)F)c2)cc1-c1cc(C2(O)COC2)cc(C2(F)COC2)c1 [Example 142, N-(5-(3-(3-fluorooxetan-3-yl)-5-(3-hydroxyoxetan-3-yl)phenyl)-6-methylpyridin-3-yl)-2-(2-fluoropropan-2-yl)isonicotinamide]",11.2 nM
2,"COC1(c2cc(-c3cc(NC(=O)c4cccc(C(F)(F)F)c4)cnc3C)cc(OCCO)n2)COC1 [Example 160, N-(2′-(2-hydroxyethoxy)-6′-(3-methoxyoxetan-3-yl)-2-methyl-[3,4′-bipyridin]-5-yl)-3-(trifluoromethyl)benzamide]",0.7 nM
3,"Cc1ccc(NC(=O)c2cc(C(F)(F)F)ccn2)cc1-c1cc(NCCO)nc(C2(O)CCOCC2)c1 [Example 303, N-(3-(2-((2-hydroxyethyl)amino)-6-(4-hydroxytetrahydro-2H-pyran-4-yl)pyridin-4-yl)-4-methylphenyl)-4-(trifluoromethyl) picolinamide]",1.99 nM
4,"CCOc1ncc(-c2cc(NC(=O)c3ccnc(C(C)(C)F)c3)cnc2C)cc1C1(CF)CCOC1 (stereo not drawn) [Example 165, N-(6′-ethoxy-5′-(3-(fluoromethyl)tetrahydrofuran-3-yl)-2-methyl-[3,3′-bipyridin]-5-yl)-2-(2-fluoropropan-2-yl)isonicotinamide]",1 nM
5,"Cc1ccc(NC(=O)c2ccnc(C(F)(F)F)c2)cc1-c1cc(NCCO)nc(C2CCOCC2)c1 [Example 172, N-(3-(2-((2-hydroxyethyl)amino)-6-(tetrahydro-2H-pyran-4-yl)pyridin-4-yl)-4-methylphenyl)-2-(trifluoromethyl) isonicotinamide]",1.99 nM
6,"Cc1nc2cc(C3CCOCC3)cc(-c3cc(NC(=O)c4cnnc(C(F)(F)F)c4)ccc3C)c2[nH]1 [Example 221, N-(4-methyl-3-(2-methyl-5-(tetrahydro-2H-pyran-4-yl)-1H-benzo[d]imidazol-7-yl)phenyl)-6-(trifluoromethyl) pyridazine-4-carboxamide]",2 nM
7,"COc1ncc(-c2cc(C(=O)Nc3cccc(C(F)F)c3)ccc2C)cc1C1(O)COC1 [Example 18, N-(3-(difluoromethyl)phenyl)-3-(5-(3-hydroxyoxetan-3-yl)-6-methoxypyridin-3-yl)-4-methylbenzamide]",0.6 nM
8,"CCOc1ncc(-c2cc(NC(=O)c3ccnc(C(C)(C)F)c3)ccc2C)cc1C1(CO)CCOC1 (stereo not drawn) [Example 291, N-(3-(6-ethoxy-5-(3-(hydroxymethyl)tetrahydrofuran-3-yl)pyridin-3-yl)-4-methylphenyl)-2-(2-fluoropropan-2-yl)isonicotinamide]",1 nM
9,"CCOc1ncc(-c2cc(NC(=O)c3ccnc(C(C)(C)F)c3)cnc2C)cc1C1(C#N)CCOC1 (stereo not drawn) [Example 170, N-(5′-(3-cyanotetrahydrofuran-3-yl)-6′-ethoxy-2-methyl-[3,3′-bipyridin]-5-yl)-2-(2-fluoropropan-2-yl) isonicotinamide]",2 nM
10,"Cc1ncc(NC(=O)c2ccnc(C(C)(C)F)c2)cc1-c1cc(OCCO)nc(C2(F)COC2)c1 [Example 50, N-(2′-(3-fluorooxetan-3-yl)-6′-(2-hydroxyethoxy)-2-methyl-[3,4′-bipyridin]-5-yl)-2-(2-fluoropropan-2-yl)isonicotinamide]",3.29 nM
11,"Cc1ncc(NC(=O)c2ccc(CN)c(C(F)(F)F)c2)cc1-c1cc(C2COC2)c2nccn2n1 [Example 10, 4-(aminomethyl)-N-(6-methyl-5-(8-(oxetan-3-yl)imidazo[1,2-b]pyridazin-6-yl)pyridin-3-yl)-3-(trifluoromethyl)benzamide]",2 nM
12,"Cc1ccc(NC(=O)c2ccnc(C(C)(F)F)c2)cc1-c1cc(C2CCOCC2)nc(N(CCO)CCO)c1 [Example 177, N-(3-(2-(bis(2-hydroxyethyl)amino)-6-(tetrahydro-2H-pyran-4-yl)pyridin-4-yl)-4-methylphenyl)-2-(1,1-difluoroethyl) isonicotinamide]",0.621 nM
13,"Cc1nc2cc(C3CCOCC3)cc(-c3cc(NC(=O)c4cc(C(F)(F)F)ccn4)ccc3C)c2[nH]1 [Example 224, N-(4-methyl-3-(2-methyl-5-(tetrahydro-2H-pyran-4-yl)-1H-benzo[d]imidazol-7-yl)penyl)-4-(trifluoromethyl) picolinamide]",5 nM
14,Cc1ccc(NC(=O)c2ccnc(C(F)(F)F)c2)cc1-c1cc(C2CCOCC2)c(N(C)CCO)nn1 [Example 308],0.5 nM
15,"CCOc1ncc(-c2cc(NC(=O)c3ccnc(C(C)(C)F)c3)ccc2C)cc1C1(O)CCOC1 (stereo not drawn) [Example 295, N-(3-(6-ethoxy-5-(3-hydroxytetra-hydrofuran-3-yl)pyridin-3-yl)-4-methylphenyl)-2-(2-fluoropropan-2-yl)isonicotinamide]",1 nM
16,"CCOc1nnc(-c2cc(NC(=O)c3cc(C(F)(F)F)c[nH]c3=O)ccc2C)cc1C1CCOCC1 [Example 226, N-(3-(6-ethoxy-5-(tetrahydro-2H-pyran-4-yl)pyridazin-3-yl)-4-methylphenyl)-2-oxo-5-(trifluoromethyl)-1,2-dihydropyridine-3-carboxamide]",4 nM

# Results, then the compound that gave them:
row,IC50,SMILES
1,0.3 nM,"Cc1ccc(NC(=O)c2cc(C(F)(F)F)ccn2)cc1-c1cc2c(c(C3CCOCC3)c1)NC(=O)C(C)(CO)O2 (stereo not drawn) [Example 192, N-(3-(2-(hydroxymethyl)-2-methyl-3-oxo-5-(tetrahydro-2H-pyran-4-yl)-3,4-dihydro-2H-benzo [b][1,4]oxazin-7-yl)-4-methylphenyl)-4-(trifluoromethyl) picolinamide]"
2,0.0853 nM,"Cc1ncc(NC(=O)c2cccc(C(F)(F)F)c2)cc1-c1cc(OCCO)nc(C2(CF)COC2)c1 [Example 132, N-(2′-(3-(fluoromethyl)oxetan-3-yl)-6′-(2-hydroxyethoxy)-2-methyl-[3,4′-bipyridin]-5-yl)-3-(trifluoromethyl)benzamide]"
3,0.5 nM,"Cc1ccc(NC(=O)c2ccnc(C(C)(C)C#N)c2)cc1-c1cc(OCCO)nc(C2(C)CCOCC2)c1 [Example 208, 2-(2-cyanopropan-2-yl)-N-(3-(2-(2-hydroxyethoxy)-6-(4-methyltetrahydro-2H-pyran-4-yl)pyridin-4-yl)-4-methylphenyl) isonicotinamide]"
4,0.2 nM,"Cc1ccc(NC(=O)c2ccnc(C#N)c2)cc1-c1cc(OCCO)nc(C2CCOCC2)c1 [Example 263, 2-cyano-N-(3-(2-(2-hydroxyethoxy)-6-(tetrahydro-2H-pyran-4-yl)pyridin-4-yl)-4-methylphenyl) isonicotinamide]"
5,0.3 nM,"CCOc1nnc(-c2cc(NC(=O)c3ccnc(C(F)(F)F)c3)cnc2C)cc1C1CCOCC1 [Example 236, N-(5-(6-ethoxy-5-(tetrahydro-2H-pyran-4-yl)pyridazin-3-yl)-6-methylpyridin-3-yl)-2-(trifluoromethyl) isonicotinamide]"
6,0.3 nM,"CCOc1ncc(-c2cc(NC(=O)c3ccnc(C(C)(C)F)c3)cnc2C)cc1C1(CF)COC1 [Example 32, N-(6′-ethoxy-5′-(3-(fluoromethyl)oxetan-3-yl)-2-methyl-[3,3′-bipyridin]-5-yl)-2-(2-fluoropropan-2-yl)isonicotinamide]"
7,0.1 nM,"Cc1ccc(NC(=O)c2ccnc(C(F)(F)F)c2)cc1-c1cc(C2CCOCC2)c(OC(C)C)nn1 [Example 316, N-(3-(6-isopropoxy-5-(tetrahydro-2H-pyran-4-yl)pyridazin-3-yl)-4-methylphenyl)-2-(trifluoromethyl) isonicotinamide]"
8,0.0747 nM,"Cc1ccc(NC(=O)c2ccnc(C(F)F)c2)cc1-c1cc(OCCO)nc(C2(CF)COC2)c1 [Example 55, 2-(difluoromethyl)-N-(3-(2-(3-(fluoromethyl)oxetan-3-yl)-6-(2-hydroxyethoxy)pyridin-4-yl)-4-methylphenyl)isonicotin-amide]"
9,0.136 nM,"Cc1ccc(NC(=O)c2cccc(C(F)(F)F)c2)cc1-c1cc(OCCO)nc(C2CCOCC2)c1 [Example 189, N-(3-(2-(2-hydroxyethoxy)-6-(tetrahydro-2H-pyran-4-yl)pyridin-4-yl)-4-methylphenyl)-3-(trifluoromethyl) benzamide]"
10,0.3 nM,"Cc1ccc(NC(=O)c2ccnc(C3(C(F)(F)F)CC3)c2)cc1-c1cc(OCCO)nc(C2CCOCC2)c1 [Example 259, N-(3-(2-(2-hydroxyethoxy)-6-(tetrahydro-2H-pyran-4-yl)pyridin-4-yl)-4-methylphenyl)-2-(1-(trifluoromethyl)cyclopropyl) isonicotinamide]"
11,0.4 nM,"CCOc1ncc(-c2cc(NC(=O)c3ccnc(C(C)(C)C#N)c3)cnc2C)cc1C1CCOCC1 [Example 164, 2-(2-cyanopropan-2-yl)-N-(6′-ethoxy-2-methyl-5′-(tetrahydro-2H-pyran-4-yl)-[3,3′-bipyridin]-5-yl)isonicotinamide]"

# — patent publication US10167279B2 (NOVARTIS AG, priority 2014, dated 2019)
